In US12005127B2, “DNA-PK inhibitors” (VERTEX PHARMACEUTICALS INCORPORATED, priority 2018, dated 2024):
pIC50: −log10 of the molar value.

How the values were obtained:
DNA-PK [1] = target: T1, DNA-PK (Homo sapiens, UniProt P78527); assay: DNA-PK inhibition assay (radiometric 33P-ATP kinase assay); format: biochemical; conditions: competitive tight-binding fit
Method: Compounds were screened for their ability to inhibit DNA-PK kinase using a standard radiometric assay. Briefly, in this kinase assay the transfer of the terminal ^33P-phosphate in ^33P-ATP to a peptide substrate is interrogated. The assay was carried out in 384-well plates to a final volume of 50 μL per well containing approximately 6 nM DNA-PK, 50 mM HEPES (pH 7.5), 10 mM MgCl2, 25 mM NaCl, 0.01% BSA, 1 mM DTT, 10 μg/mL sheared double-stranded DNA (obtained from Sigma), 0.8 mg/mL DNA-PK peptide (Glu-Pro-Pro-Leu-Ser-Gln-Glu-Ala-Phe-Ala-Asp-Leu-Trp-Lys-Lys-Lys, obtained from American Peptide), and 100 μM ATP. Accordingly, compounds of the invention were dissolved in DMSO to make 10 mM initial stock solutions. Serial dilutions in DMSO were then made to obtain the final solutions for the assay. A 0.75 μL aliquot of DMSO or inhibitor in DMSO was added to each well, followed by the addition of ATP substrate solution containing ^33P-ATP (obtained from Perkin Elmer). The reaction was started by the addition of DNA-PK, peptide and ds-DNA. After 45 min, the reaction was quenched with 25 μL of 5% phosphoric acid. The reaction mixture was transferred to MultiScreen HTS 384-well PH plates (obtained from Millipore), allowed to bind for one hour, and washed three times with 1% phosphoric acid. Following the addition of 50 μL of Ultima Gold™ high efficiency scintillant (obtained from Perkin Elmer), the samples were counted in a Packard TopCount NXT Microplate Scintillation and Luminescence Counter (Packard BioScience). The Ki values were calculated using Microsoft Excel Solver macros to fit the data to the kinetic model for competitive tight-binding inhibition. In Tables 1 and 2 below, Ki of less than 0.001 micromolar for the inhibition of DNA-PK is indicated as “A”; Ki of equal to or greater than 0.001 micromolar and less than 0.01 micromolar for the inhibition of DNA-PK as “B”; Ki of equal to or greater than 0.01 micromolar and less than 0.1 micromolar for the inhibition of DNA-PK as “C”; Ki of equal to or greater than 0.1 micromolar and less than 1 micromolar for the inhibition of DNA-PK for “D”; and Ki of equal to or greater than 1 micromolar as “E.”

DNA-PK [2] = target: T1, DNA-PK; assay: DNA-PK cellular assay (pDNA-PK Ser2056 sandwich ELISA, NCS-induced DSBs); format: cell-based; parameters: endogenous in cells; host or cells: A549 (human NSCLC); conditions: pDNA-PK (Ser2056) in A549 cells, NCS 50 ng/ml, 15 minutes
From the text: DNA-PK is recruited to and activated by double-strand breaks (DSB) in DNA and plays a critical role in the non-homologous end-joining (NHEJ) repair mechanism. Upon activation, DNA-PK undergoes rapid autophosphorylation at Ser2056. The measure of pDNA-PK (Ser2056) in response to DNA DSBs provides a cellular signaling assay to evaluate potential DNA-PK kinase inhibitors.
Neocarzinostatin (NCS) was used as a radiomimetic to induce DNA DSBs. The sandwich ELISA used the Meso Scale Discovery electrochemiluminescence technology platform which typically provides greater sensitivity than traditional ELISA formats.
A549 (human NSCLC) cells are plated at 25,000 cells/well in 100 uL of DMEM (Invitrogen cat #11995-040) supplemented with 1% Pen/Strep (Invitrogen cat #15070-063) and 10% FBS (Hyclone cat #SH30071.03HI) on black clear bottom 96 well plates (Costar #3904) and allowed to adhere overnight at 37° C. in 5% CO2. The following day, the compounds and NCS solutions are prepared by adding 100 ul of DMEM growth media per well in a Corning polypropylene V-bottom deep well plate (cat #3357). The HP Compound Dilution D300 instrument was used to add compounds to the appropriate wells using the setting logarithmic and 16-point titration singlet.
The DMEM NCS solution was prepared by adding NCS to DMEM media at 200 ng/ml (final assay concentration, 50 ng/ml). 100 ul of the DMEM/NCS solution is added to the wells with the compounds. 100 ul of this solution is then immediately added to the A549 cells. The cells are then incubated for 15 minutes at 37° C.
The complete lysis buffer is prepared by adding 1% Phosphatase inhibitor (Sigma cat #P2850) and 1% Protease Inhibitor (Sigma cat #P8340) to the Lanthascreen cellular assay lysis buffer (Invitrogen cat #PV5598). The media from the plate was removed by flicking and patting dry. 60 uL/well of the complete lysis buffer is added to each well. These plates are then incubated for at least 5 minutes in the lysis buffer at room temperature to ensure complete lysis. At this point the lysates can be transferred to prepared ELISA plates.
The prepared ELISA plates were prepared blocking the Mesoscale Goat-Anti-Mouse (GAM) plates with 150 uL/well of 3% Blocker A (Mesoscale cat #R93-BA) for one hour at room temperature with shaking. The capture antibody is prepared by diluting the mouse monoclonal anti-total DNA-PK (AbCAM cat #ab1832) to 3 ug/mL in 1% Blocker A. The blocked plates rinsed once with 200 uL D-PBS. The capture antibody (25 ul/well) was added to each well and allowed to incubate for an hour at room temperature while shaking. This was rinsed once with 200 ul D-PBS before adding 25 uL of the prepared cell lysate from the cell plates to the Mesoscale GAM ELISA plate. The lysate is then incubated on the plates for one hour at room temperature with shaking. The detection antibody (Epitomics rabbit anti-pS2056-DNA-PK) is prepared at a 1/1000 dilution (to a final concentration of 450 ng/mL) in 1% Blocker A. The GAM plates are washed once with 200 uL of D-PBS and then 25 uL/well of the detection antibody is added to the plate. This incubates for one hour at room temperature with shaking. The Sulfotag is prepared by adding Sulfo-Tag Goat-Anti-Rabbit antibody (Mesoscale cat #R32AB-1) at a 1/500 dilution (1 ug/mL) to 1% Blocker A. The GAM plates are washed with 200 uL of D-PBS and then 25 uL of the Sulfotag preparation is added to each well. Once the plates have been incubated with the final solution, the Sulfotag, for 1 hour, they are washed once with 200 uL of D-PBS. The 1× Read Buffer (Mesoscale cat #R32-TC) is made by diluting the 4× buffer in ddH20. 150 uL of 1× buffer is added to each well of the GAM plate and then the plate is read on the Sector Imager 2400. The readout (electrochemiluminescence) was plotted against the concentration of each compound and the IC50s were generated using Prism software (GraphPad Prism version 6.0e for Macintosh). […]

Ki (DNA-PK [1]; Table 2, 100 μM ATP) | pIC50 (DNA-PK [2]; Table 2) | Ki (DNA-PK [1]; Table 1, 100 μM ATP) | pIC50 (DNA-PK [2]; Table 1) | SMILES
0.001 to 0.01 µM | ≤ 6.00 |  |  | COc1ccc(COc2cc(N3CCOCC3)cc3ncncc23)cc1 [Compound 52, 4-[5-[(4-methoxyphenyl)methoxy]quinazolin-7-yl]morpholine]
 |  | < 0.001 µM | > 7.00 | CNC(=O)c1ccnc(N[C@H]2CC[C@@H](Oc3cc(N4CCOCC4)cc4ncncc34)CC2)n1 [Compound 8, N-methyl-2-[[4-(7-morpholinoquinazolin-5-yl)oxycyclohexyl]amino]pyrimidine-4-carboxamide]
 |  | < 0.001 µM | > 7.00 | COc1ncnc2cc(N3CCOCC3)cc(O[C@H]3CC[C@@H](Nc4nc(C)nc5c4OCC5)CC3)c12 [Compound 5, N-[4-(4-methoxy-7-morpholino-quinazolin-5-yl)oxycyclohexyl]-2-methyl-6,7-dihydrofuro[3,2-d]pyrimidin-4-amine]
 |  | < 0.001 µM | > 7.00 | CNC(=O)c1ccnc(N[C@H]2CC[C@@H](Oc3cc(N4CCOCC4)cc4ncnc(C)c34)CC2)n1 [Compound 13, N-methyl-2-[[4-(4-methyl-7-morpholino-quinazolin-5-yl)oxycyclohexyl]amino]pyrimidine-4-carboxamide]
 |  | 0.001 to 0.01 µM | 6.00 to 7.00 | Cc1nccc(N[C@H]2CC[C@@H](Oc3cc(N4CCOCC4)cc4nc(C)ncc34)CC2)n1 [Compound 12, 2-methyl-N-[4-(2-methyl-7-morpholino-quinazolin-5-yl)oxycyclohexyl]-pyrimidin-4-amine]
 |  | < 0.001 µM | > 7.00 | O=C(N[C@H]1CC[C@@H](Oc2cc(N3CCOCC3)cc3ncncc23)CC1)C1CC1 [Compound 16, N-[4-(7-morpholinoquinazolin-5-yl)oxycyclohexyl]cyclopropanecarboxamide]
 |  | < 0.001 µM | > 7.00 | Cn1ccc(N[C@H]2CC[C@@H](Oc3cc(N4CCOCC4)cc4ncncc34)CC2)n1 [Compound 24, 1-methyl-N-((1s,4s)-4-((7-morpholinoquinazolin-5-yl)oxy)cyclohexyl)-1H-pyrazol-3-amine]
 |  | < 0.001 µM | > 7.00 | Cc1nccc(N[C@H]2CC[C@@H](Oc3cc(N4CCOCC4)cc4ncnc(C#N)c34)CC2)n1 [Compound 4, 5-[4-[(2-methylpyrimidin-4-yl)amino]cyclohexoxy]-7-morpholino-quinazoline-4-carbonitrile]
 |  | < 0.001 µM | > 7.00 | COc1ncnc2cc(N3CCOCC3)cc(O[C@H]3CC[C@@H](Nc4ccnc(C)n4)CC3)c12 [Compound 6, N-[4-(4-methoxy-7-morpholino-quinazolin-5-yl)oxycyclohexyl]-2-methyl-pyrimidin-4-amine]
 |  | < 0.001 µM | > 7.00 | Cc1nc2c(c(N[C@H]3CC[C@@H](Oc4cc(N5CCOCC5)cc5ncncc45)CC3)n1)OCC2 [Compound 1, 2-methyl-N-[4-(7-morpholinoquinazolin-5-yl)oxycyclohexyl]-6,7-dihydrofuro[3,2-d]pyrimidin-4-amine]
0.001 to 0.01 µM | ≤ 6.00 |  |  | COc1ccc(COc2cc(N3CCOCC3)cc3ncnc(C#N)c23)cc1 [Compound 55, 5-[(4-methoxyphenyl)methoxy]-7-morpholino-quinazoline-4-carbonitrile]
 |  | < 0.001 µM | > 7.00 | CC1(C(=O)N[C@H]2CC[C@@H](Oc3cc(N4CCOCC4)cc4ncncc34)CC2)CC1 [Compound 23, 1-methyl-N-((1s,4s)-4-((7-morpholinoquinazolin-5-yl)oxy)cyclohexyl)cyclopropane-1-carboxamide]
 |  | < 0.001 µM | > 7.00 | O=C(N[C@H]1CC[C@@H](Oc2cc(N3CCOCC3)cc3ncncc23)CC1)c1ccncn1 [Compound 15, N-[4-(7-morpholinoquinazolin-5-yl)oxycyclohexyl]pyrimidine-4-carboxamide]
 |  | 0.001 to 0.01 µM | ≤ 6.00 | COCC(=O)N[C@H]1CC[C@@H](Oc2cc(N3CCOCC3)cc3ncncc23)CC1 [Compound 20, 2-methoxy-N-((1s,4s)-4-((7-morpholinoquinazolin-5-yl)oxy)cyclohexyl)acetamide]
